Experimental data: BigSolDB 2.1

O=P(Oc1ccccc1)(Oc1ccccc1)Oc1ccc(OP(=O)(Oc2ccccc2)Oc2ccccc2)cc1
Settings | solubility (mole fraction)
in acetone, 293.25 K | 0.0058
in acetone, 298.15 K | 0.00849
in acetone, 303.45 K | 0.0121
in acetone, 308.15 K | 0.0171
in acetone, 313.25 K | 0.0237
in acetone, 318.15 K | 0.0332
in acetone, 323.45 K | 0.0442
in acetonitrile, 293.25 K | 0.00142
in acetonitrile, 298.15 K | 0.00218
in acetonitrile, 303.25 K | 0.0034
in acetonitrile, 308.25 K | 0.00546
in acetonitrile, 313.25 K | 0.00807
in acetonitrile, 318.15 K | 0.0117
in acetonitrile, 323.25 K | 0.0173
in acetonitrile, 328.15 K | 0.0246
in acetonitrile, 333.25 K | 0.0357
in diethyl ether, 288.25 K | 0.00064
in diethyl ether, 293.25 K | 0.00081
in diethyl ether, 298.15 K | 0.00101
in diethyl ether, 303.25 K | 0.00127
in ethanol, 293.25 K | 0.00037
in ethanol, 298.15 K | 0.00062
in ethanol, 303.35 K | 0.00097
in ethanol, 308.25 K | 0.00156
in ethanol, 313.25 K | 0.00238
in ethanol, 318.25 K | 0.00356
in ethanol, 323.25 K | 0.00528
in ethanol, 328.15 K | 0.00807
in ethanol, 333.25 K | 0.0115
in ethyl acetate, 293.25 K | 0.00423
in ethyl acetate, 298.15 K | 0.00605
in ethyl acetate, 303.35 K | 0.00865
in ethyl acetate, 308.25 K | 0.0123
in ethyl acetate, 313.25 K | 0.0169
in ethyl acetate, 318.15 K | 0.0226
in ethyl acetate, 323.25 K | 0.0308
in ethyl acetate, 328.15 K | 0.0419
in ethyl acetate, 333.25 K | 0.0553
in isopropanol, 293.15 K | 0.00013
in isopropanol, 298.23 K | 0.00024
in isopropanol, 303.25 K | 0.00041
in isopropanol, 308.15 K | 0.00071
in isopropanol, 313.35 K | 0.00125
in isopropanol, 318.15 K | 0.00211
in isopropanol, 323.17 K | 0.00346
in isopropanol, 328.15 K | 0.00544
in isopropanol, 333.25 K | 0.00933
in methanol, 293.25 K | 0.00022
in methanol, 298.15 K | 0.0004
in methanol, 303.25 K | 0.00069
in methanol, 308.15 K | 0.00118
in methanol, 313.25 K | 0.00205
in methanol, 318.15 K | 0.0034
in methanol, 323.45 K | 0.00597
in methyl acetate, 293.25 K | 0.00522
in methyl acetate, 298.25 K | 0.00729
in methyl acetate, 303.25 K | 0.0106
in methyl acetate, 308.15 K | 0.0144
in methyl acetate, 313.15 K | 0.0203
in methyl acetate, 318.15 K | 0.0275
in methyl acetate, 323.45 K | 0.0369
in n-propanol, 293.15 K | 0.00025
in n-propanol, 298.17 K | 0.00046
in n-propanol, 303.25 K | 0.00078
in n-propanol, 308.15 K | 0.00127
in n-propanol, 313.24 K | 0.00215
in n-propanol, 318.18 K | 0.0035
in n-propanol, 323.25 K | 0.00558
in n-propanol, 328.15 K | 0.00884
in n-propanol, 333.24 K | 0.0136
in toluene, 293.15 K | 0.00378
in toluene, 298.25 K | 0.00543
in toluene, 303.35 K | 0.00795
in toluene, 308.15 K | 0.0114
in toluene, 313.25 K | 0.0154
in toluene, 318.18 K | 0.0219
in toluene, 323.25 K | 0.0303
in toluene, 328.16 K | 0.0402
in toluene, 333.25 K | 0.0556
